Assay results as given in the supplement of paper PMC11208160.

Assay: recombinant barcode read abundance after kanamycin selection (control-corrected) (log10(CPM+1)); higher = more efficient recombination; sequences stand for … in AGTGCAGAGAAAATCGGCCAGTTTTCTCTGCCTGCAGTCCGCATGCCGT…AGATTTATGCAGCGGACTGCCTTTCTCCCAAAGTGATAAACCGGACAGTATCATGGACCGGTTTTCCCGGTAATCCGTATTTGCAAGGTTGGTTTCACT; site = the 11-nt target
How it was run: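 Values are log10(CPM+1) from a pooled E. coli screen of targets paired with IS621 bridge RNA target-binding loops. Recombination efficiency here means counts per million of recombinant-junction barcodes, averaged and control-corrected. Plates were chloramphenicol/ampicillin LB agar for the control and chloramphenicol/ampicillin/kanamycin with 0.1 mM IPTG, two replicates each.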
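Note: IS621 recombinase and bridge RNA in Escherichia coli cells.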

Point of comparison: “CTCGCTCCTTGGGTTCTAACCTGTTGCTG (site AATAAGTCTAT)”, “recombinant barcode read abundance (log10)” value 0.102. Against it:
- CTCGACACTTGGGTTCTAACCTGTTGCCT (site CTGGACACTAG) — within 0.2 log units, 0.0603
- CTCGACACTTGGGTTCTAACCTGTTGCCT (site CTTGACACTAG) — within 0.2 log units, 0.215
- CTCGCAGCTTGGGTTCTAACCTGTTGCGG (site CTCGCAGCTCC) — higher, 0.313
- CTCGCAGCTTGGGTTCTAACCTGTTGCGG (site CTCGCGACTCC) — within 0.2 log units, 0.141
- CTCGCGACTTGGGTTCTAACCTGTTGCGG (site CTCGCAGCTCC) — higher, 0.655
- CTCGCGACTTGGGTTCTAACCTGTTGCGG (site CTCGCGACTCC) — within 0.2 log units, 0.181
- CTCGCTCCTTGGGTTCTAACCTGTTGCTG (site CTCGCTCCTCA) — higher, 0.563
- CTCGGAGCTTGGGTTCTAACCTGTTGCCT (site CTCGGAACTAG) — higher, 0.499
- CTCGGAGCTTGGGTTCTAACCTGTTGCCT (site CTCGGACCTAG) — within 0.2 log units, 0.0847
- CTCGGAGCTTGGGTTCTAACCTGTTGCCT (site CTCGGAGCTAG) — higher, 1.04
- CTCGGAGCTTGGGTTCTAACCTGTTGCCT (site CTCGGATCTAG) — higher, 0.311
- CTCGGATCTTGGGTTCTAACCTGTTGCTT (site CTCGGATCTAA) — higher, 1.38
- CTCGGATCTTGGGTTCTAACCTGTTGCTT (site CTCGGATCTCA) — within 0.2 log units, 0.0569
- CTCGGATCTTGGGTTCTAACCTGTTGCTT (site CTCGGATCTGA) — within 0.2 log units, 0.0569
- CTCGGATCTTGGGTTCTAACCTGTTGCTT (site CTCGGATCTTA) — higher, 0.371
- CTCTAAACTTGGGTTCTAACCTGTTGCCG (site CTCATAACTCG) — within 0.2 log units, 0.132
- CTCTAAACTTGGGTTCTAACCTGTTGCCG (site CTCTAAACTCG) — higher, 0.311
- CTCTACCCTTGGGTTCTAACCTGTTGCGT (site CTCTAACCTAC) — within 0.2 log units, 0.272
- CTCTACCCTTGGGTTCTAACCTGTTGCGT (site CTCTACCCTAC) — higher, 0.589
- CTCTACCCTTGGGTTCTAACCTGTTGCGT (site CTCTAGCCTAC) — within 0.2 log units, 0.0363
- CTCTACCCTTGGGTTCTAACCTGTTGCGT (site CTCTATCCTAC) — within 0.2 log units, 0.0916
- CTCTAGACTTGGGTTCTAACCTGTTGCGT (site CTCTAGACTAC) — higher, 2.01
- CTCTAGACTTGGGTTCTAACCTGTTGCGT (site CTTTAGACTAT) — within 0.2 log units, 0.211
- CTCTATTCTTGGGTTCTAACCTGTTGCAT (site CTCAATTCTAT) — within 0.2 log units, 0.262
- CTCTATTCTTGGGTTCTAACCTGTTGCAT (site CTCCATTCTAT) — within 0.2 log units, 0.16
- CTCTATTCTTGGGTTCTAACCTGTTGCAT (site CTCGATTCTAT) — within 0.2 log units, 0.161
- CTCTATTCTTGGGTTCTAACCTGTTGCAT (site CTCTATTCTAT) — within 0.2 log units, 0.242
- CTCTCATCTTGGGTTCTAACCTGTTGCTT (site CTCTCATCTAA) — within 0.2 log units, 0.0308
- CTCTCATCTTGGGTTCTAACCTGTTGCTT (site CTCTCATCTAG) — within 0.2 log units, 0.232
- CTCTCGCCTTGGGTTCTAACCTGTTGCCT (site CTATCGCCTAG) — within 0.2 log units, 0
- CTCTCGCCTTGGGTTCTAACCTGTTGCCT (site CTCTCGCCTAG) — within 0.2 log units, 0.168
- CTCTCGCCTTGGGTTCTAACCTGTTGCCT (site CTGTCGCCTAG) — within 0.2 log units, 0.0587
- CTCTCGCCTTGGGTTCTAACCTGTTGCCT (site CTTTCGCCTAG) — within 0.2 log units, 0.0266
- CTCTCGGCTTGGGTTCTAACCTGTTGCCT (site CTCTAGGCTAG) — higher, 0.494
- CTCTCGGCTTGGGTTCTAACCTGTTGCCT (site CTCTCGGCTAG) — higher, 0.865
- CTCTCGGCTTGGGTTCTAACCTGTTGCCT (site CTCTGGGCTAG) — within 0.2 log units, 0.138
- CTCTCGGCTTGGGTTCTAACCTGTTGCCT (site CTCTTGGCTAG) — within 0.2 log units, 0.0157
- CTCTGCTCTTGGGTTCTAACCTGTTGCTC (site CTCTGCTCTGA) — higher, 0.724
- CTCTGCTCTTGGGTTCTAACCTGTTGCTC (site GCTGAGGCTTG) — within 0.2 log units, 0
- CTCTGTCCTTGGGTTCTAACCTGTTGCTA (site CTCTGTCCTTA) — higher, 0.346
- CTCTGTCCTTGGGTTCTAACCTGTTGCTA (site CTCTGTCCTTG) — within 0.2 log units, 0.0487
- CTCTTAACTTGGGTTCTAACCTGTTGCTA (site CTCTTAACTTA) — within 0.2 log units, 0.128
- CTCTTAACTTGGGTTCTAACCTGTTGCTA (site CTCTTAGCTTT) — within 0.2 log units, 0.134
- CTCTTGACTTGGGTTCTAACCTGTTGCTT (site CTCTGGACTAA) — within 0.2 log units, 0.0764
- CTCTTGACTTGGGTTCTAACCTGTTGCTT (site CTCTTGACTAA) — higher, 0.871
- CTGAGCCCTTGGGTTCTAACCTGTTGCCG (site CTAAGCCCTCC) — within 0.2 log units, 0.239
- CTGAGCCCTTGGGTTCTAACCTGTTGCCG (site CTGAGCCCTCG) — higher, 1.08
- CTGAGGCCTTGGGTTCTAACCTGTTGCCT (site ATGAGGCCTAG) — within 0.2 log units, 0.226
- CTGAGGCCTTGGGTTCTAACCTGTTGCCT (site CTGAGGCCTAG) — higher, 0.497
- CTGAGGCCTTGGGTTCTAACCTGTTGCCT (site GTGAGGCCTAG) — within 0.2 log units, 0.11
- CTGAGGCCTTGGGTTCTAACCTGTTGCCT (site TTGAGGCCTAG) — within 0.2 log units, 0.299
- CTGATAACTTGGGTTCTAACCTGTTGCCT (site CTGATAACTAG) — higher, 1.02
- CTGATAACTTGGGTTCTAACCTGTTGCCT (site CTGATCACTAG) — within 0.2 log units, 0.279
- CTGATAACTTGGGTTCTAACCTGTTGCCT (site CTGATGACTAG) — within 0.2 log units, 0.0814
- CTGATAACTTGGGTTCTAACCTGTTGCCT (site CTGATTACTAG) — within 0.2 log units, 0.136
- CTGCCCGCTTGGGTTCTAACCTGTTGCCT (site CTGCCCGCTAG) — higher, 0.667
- CTGCCCGCTTGGGTTCTAACCTGTTGCCT (site GTGCTCGCTAG) — higher, 0.366
- CTGCCCTCTTGGGTTCTAACCTGTTGCCT (site CAGCCCTCTAG) — higher, 0.932
- CTGCCCTCTTGGGTTCTAACCTGTTGCCT (site CCGCCCTCTAG) — within 0.2 log units, 0.179
- CTGCCCTCTTGGGTTCTAACCTGTTGCCT (site CGGCCCTCTAG) — within 0.2 log units, 0.0113
- CTGCCCTCTTGGGTTCTAACCTGTTGCCT (site CTGCCCTCTAG) — higher, 1.74
- CTGCGCTCTTGGGTTCTAACCTGTTGCAT (site CTGCGCTCTAT) — higher, 1.22
- CTGCGCTCTTGGGTTCTAACCTGTTGCAT (site TGTGAGCCTTC) — within 0.2 log units, 0.0268
- CTGCGGTCTTGGGTTCTAACCTGTTGCAT (site ATGCGGTCTAG) — within 0.2 log units, 0.138
- CTGCGGTCTTGGGTTCTAACCTGTTGCAT (site CTGCGGTCTAT) — higher, 1.7
- CTGCGTACTTGGGTTCTAACCTGTTGCCG (site CTGCGTACTCG) — higher, 0.365
- CTGCGTACTTGGGTTCTAACCTGTTGCCG (site TCCAAGGCTTA) — within 0.2 log units, 0.0663
- CTGCGTCCTTGGGTTCTAACCTGTTGCCT (site CTCCGTCCTAG) — within 0.2 log units, 0.121
- CTGCGTCCTTGGGTTCTAACCTGTTGCCT (site CTGCGTCCTAG) — higher, 0.671
- CTGGAAACTTGGGTTCTAACCTGTTGCCT (site CGGGTAACTAG) — within 0.2 log units, 0.0164
- CTGGAAACTTGGGTTCTAACCTGTTGCCT (site CTGGAAACTAG) — higher, 1.23
- CTGGACACTTGGGTTCTAACCTGTTGCCT (site CTAGACACTAG) — higher, 1.94
- CTGGACACTTGGGTTCTAACCTGTTGCCT (site CTCGACACTAG) — within 0.2 log units, 0.0566
- CTGGACACTTGGGTTCTAACCTGTTGCCT (site CTGGACACTAG) — higher, 1.83
- CTGGACACTTGGGTTCTAACCTGTTGCCT (site CTTGACACTAG) — higher, 0.329
- CTGGGCACTTGGGTTCTAACCTGTTGCCT (site CGGGGCACTAG) — within 0.2 log units, 0.164
- CTGGGCACTTGGGTTCTAACCTGTTGCCT (site CTGGGCACTAG) — higher, 0.395
- CTGGGCCCTTGGGTTCTAACCTGTTGCCT (site CTGAGCCCTAG) — within 0.2 log units, 0.12
- CTGGGCCCTTGGGTTCTAACCTGTTGCCT (site CTGCGCCCTAG) — within 0.2 log units, 0.0544
- CTGGGCCCTTGGGTTCTAACCTGTTGCCT (site CTGGGCCCTAG) — within 0.2 log units, 0.277
- CTGGGCCCTTGGGTTCTAACCTGTTGCCT (site CTGTGCCCTAG) — within 0.2 log units, 0.214
- CTGGGTCCTTGGGTTCTAACCTGTTGCTT (site CTGGGTCCTAA) — higher, 1.48
- CTGGGTCCTTGGGTTCTAACCTGTTGCTT (site CTTGGTTCTAA) — within 0.2 log units, 0.179
- CTGGTTCCTTGGGTTCTAACCTGTTGCCT (site CTGGCTCCTAA) — higher, 0.874
- CTGGTTCCTTGGGTTCTAACCTGTTGCCT (site CTGGTTCCTAG) — higher, 1.2
